Test results published in article PMC8298439, “Development of a mechanistic model to predict synthetic biotic activity in healthy volunteers and patients with phenylketonuria” (Communications Biology, 2021).

Target: T1, PAL (phenylalanine ammonia lyase) of SYNB1618 (Photorhabdus laumondii, UniProt Q7N4T3)
T1 construct: gene plu2234; expressed in cytosol of engineered E. coli Nissle 1917 (SYNB1618, with PheP transporter, dapA deleted); whole-cell assay, LAAD not induced; multimeric
Assay: d5-TCA formation from d5-Phe by whole SYNB1618 cells, LC-MS/MS
Type: cell-based
Details: whole-cell product (feedback) inhibition; 20 mM d5-Phe; 0.0–8.0 mM exogenous unlabeled TCA; 60 min

T1 sequence (Q7N4T3 entry or part of it): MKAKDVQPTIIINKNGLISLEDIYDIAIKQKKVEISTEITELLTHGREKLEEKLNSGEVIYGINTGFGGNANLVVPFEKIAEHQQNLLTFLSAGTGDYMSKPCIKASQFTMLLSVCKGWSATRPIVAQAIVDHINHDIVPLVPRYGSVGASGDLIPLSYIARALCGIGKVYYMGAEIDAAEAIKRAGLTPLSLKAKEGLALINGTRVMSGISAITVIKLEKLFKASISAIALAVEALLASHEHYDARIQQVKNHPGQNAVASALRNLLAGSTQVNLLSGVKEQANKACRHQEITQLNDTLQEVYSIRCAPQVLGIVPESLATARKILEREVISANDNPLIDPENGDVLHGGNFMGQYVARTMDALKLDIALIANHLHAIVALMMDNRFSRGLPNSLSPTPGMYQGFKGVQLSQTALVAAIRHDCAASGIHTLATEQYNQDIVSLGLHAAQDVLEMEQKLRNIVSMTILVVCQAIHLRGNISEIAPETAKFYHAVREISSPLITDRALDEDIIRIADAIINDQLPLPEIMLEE

O=C(O)/C=C/c1ccccc1 [TCA]
% decrease of de novo d5-TCA production: up to 60
